Data from PubChem BioAssay AID504539 (Broad Institute, 2011).

System: Cell-based prion protein 5' UTR reporter, plate reader
Experiment: prion protein 5' UTR mRNA inhibitors – cell-based, plate reader, cherry-picked samples, dose response (AID 504539)

| SMILES | AC50 [nM] |
| --- | --- |
| C[C@H]1CCC/C=C/[C@@H]2C[C@H](O)C[C@H]2[C@H](O)[C@H](S(=O)c2ccc(O)cc2)CC(=O)O1 (stereo partly specified) | 182 |
| CCN(CC)c1ccc(C(=C2C=CC(=[N+](CC)CC)C=C2)c2ccccc2)cc1 | 892 |
| O=c1c2ccccc2cnn1-c1nc2ccccc2[nH]1 | 185 |
| CC1CCC/C=C/C2CC(O)CC2C(O)/C=C/C(=O)O1 (stereo unspecified) | 51 |
| C=Cc1cc(OC)c2c(c1)c(=O)oc1c2cc(OC)c2c(O)ccc(C3OC(C)C(O)C(C)(O)C3O)c21 (stereo unspecified) | 211 |
| CC(C)(O)/C=C/C(=O)C(C)(O)C1C(O)CC2(C)C3CC=C4C(C=C(O)C(=O)C4(C)C)C3(C)C(=O)CC12C (stereo unspecified) | 104 |
| Cc1ccc(-n2nnc(-c3nccs3)n2)cc1 | 571 |
| CC(C)(C)c1ccc(Oc2ccc(N)cc2)cc1 | 248 |
| CC1CC(C)(O)CC(C(O)CC2CC(=O)NC(=O)C2)C1=O (stereo unspecified) | 493 |
| CCOCCOC(=O)c1[nH]c2c(c1C)C(=O)CC(c1cccs1)C2 (stereo unspecified) | 1700 |
| COc1cc(NC(=O)c2cccs2)c(C(=O)OCC(=O)c2cc(C)n(-c3ccccc3)c2C)cc1OC | 989 |
| CC1CCCC=CC2CC(OC(=O)CN(C)C)CC2C(O)C=CC(=O)O1 (stereo unspecified) | 126 |
| COc1ccc(C(=O)Nc2ccccc2C(=O)N/N=C/c2ccc(O)c(OC)c2)cc1 | 1400 |
| CC(=O)O[C@H]1C(=O)[C@@]2(C)[C@H]([C@H](OC(=O)c3ccccc3)[C@]3(O)C[C@H](OC(=O)[C@H](O)C(NC(=O)c4ccccc4)c4ccccc4)C(C)=C1C3(C)C)[C@]1(OC(C)=O)CO[C@@H]1C[C@@H]2O (stereo partly specified) | 170 |
| Cc1ccc(/C=C2\SC(=S)N(CCCC(=O)NNC(=O)c3ccccc3O)C2=O)cc1 | 428 |
| Cc1c(C(=O)OC2CCCC2)[nH]c2c1C(=O)CC(c1ccco1)C2 (stereo unspecified) | 791 |
| O=C(/C=C\Nc1ccc2c(c1)OCO2)c1ccccn1 | 173 |
| Cc1ccc(C(=O)O/N=C(\N)c2ccccn2)cc1 | 213 |
| CC/C=C/CC(=O)N[C@@H](c1ccccc1)[C@@H](O)C(=O)O[C@H]1C[C@@]2(O)[C@@H](OC(=O)c3ccccc3)C3[C@](C)(C(=O)[C@H](OC(C)=O)C(=C1C)C2(C)C)[C@@H](O)C[C@H]1OC[C@@]31OC(C)=O (stereo partly specified) | 368 |
| COc1ccc(OC)c(-c2nnc3n2N=C(c2ccc(OC)c(OC4CCOC4)c2)CS3)c1 (stereo unspecified) | 554 |
| O=C(CN1C(=O)c2ccccc2S1(=O)=O)c1ccc2c(c1)OCCCO2 | 39 |

| SMILES | AC50 [nM] |
| --- | --- |
| Cc1nn(-c2ccccc2Cl)c(Cl)c1/C=N/Nc1nc2ccccc2s1 | < 38 |
| CC1=CC2OC3CC4OC(=O)C=CC=CC(=O)OCCC(C)C(O)C(=O)OCC2(CC1O)C4(C)C31CO1 (stereo unspecified) | < 38 |
| CN(C)c1ccc2c(c1)OC(N)=C(C#N)C2c1cccc(F)c1 (stereo unspecified) | 179 |
| Cc1cc(C2=NNC(=NC3CC3)SC2)c(C)n1-c1ccccc1 | < 38 |
| Cc1ccc(-n2[nH]c(=O)c(-c3ccccn3)c2C)cc1 | 368 |
| Nc1ccc2oc(-c3cccc4ccccc34)nc2c1 | 826 |
| Cc1ccc(-c2nnc(SCC(=O)Nc3ccccc3F)o2)cc1 | 284 |
| COc1cc(SC)ccc1C(=O)Nc1nc2ccccc2[nH]1 | < 38 |
| c1ccc(-c2noc(-c3ccc4c(c3)OCO4)n2)nc1 | 140 |
| Cc1c(C)c2ccc(OCC(=O)Nc3ccccn3)c(C)c2oc1=O | 64 |
| O=C(NC1CCCCC1)c1n[nH]c2c1CCCCC2 | 759 |
| CCOc1ccc(/C=C2\SC(=S)N(CCC(=O)O)C2=O)cc1 | 277 |
| CN(C)CCN1C(=O)c2cccc3cc([N+](=O)[O-])cc(c23)C1=O | 433 |
| COc1cc(C2C(C#N)=C(N)Oc3cc(N)ccc32)cc(OC)c1OC (stereo unspecified) | 614 |
| COc1cc(-c2noc(C)c2/C=C/c2ccc(OC(C)=O)cc2)cc(OC)c1OC | 555 |
| O=C(c1ccc(Br)cc1)c1cc([N+](=O)[O-])ccc1N1CCCCC1 | 628 |
| Cc1ccc(-c2cn3nc(C)c(C)nc3n2)cc1 | 485 |
| Cc1ccc(C(=O)O/N=C(\N)c2ccccn2)cc1C | 708 |
| Cc1ccc(C(=O)O/N=C(\N)c2ccccn2)c(Cl)c1 | 197 |
| Cn1ncnc2c(=O)n(C)c(=O)nc1-2 | 135 |
